According to EPA's ToxValDB 9.5 (doi:10.2903/j.efsa.2010.1704):
Values after ≈ are worked out from the molar mass of the structure shown.

Experiments:
[1] = system: Oncorhynchus mykiss; settings: acute; duration: 96 hours; mortality
[2] = system: Tagia sp.
[3] = system: Daphnia magna; settings: chronic/long-term; duration: 21 days; reproduction
[4] = system: Typhlodromus pyri; settings: acute; duration: 7 days; mortality
[5] = system: Apis mellifera; settings: acute; duration: 48 hours; oral; unspecified; mortality
[6] = system: Pimephales promelas; settings: chronic/long-term; duration: 35 days; growth
[7] = system: Canidae; settings: oral, Dog Other, organ weight
[8] = system: Anas platyrhynchos; settings: oral, mortality
[9] = system: Rattus norvegicus
[10] = system: Oryctolagus sp.; settings: reproduction developmental; body weight
[11] = system: Coturnix japonica; settings: reproduction developmental
[12] = system: Colinus virginianus; settings: acute, oral, mortality

`Clc1ccc(C2(Cn3cncn3)CC(Br)CO2)c(Cl)c1` (stereo not given) [Bromuconazole] showed an LC50 [1] of 1.7 mg/L (≈ 4.51 µM), an LC50 ([2]; acute, duration: 14 days, mortality) greater than 1000 mg/kg and an NOEC ([2]; chronic/long-term, duration: 56 days) of 37.2 mg/kg. It also gave an NOEC [3] of 0.02 mg/L, an LEL [4] of 260 g/ha and an LD50 [5] greater than 100 µg/piece. For the same compound, the NOEC [6] was 0.065 mg/L, the NOAEL ([7]; chronic, duration: 1 years) was 2.5 mg/kg-day and the NOAEL ([7]; subchronic, duration: 90 days) was 2.5 mg/kg-day. For the same compound, the LD50 ([8]; acute, unspecified) was greater than 2150 mg/kg-day, the LC50 ([8]; short-term, feed) was greater than 684 mg/kg-day and the LD50 ([9]; acute, oral, F, mortality) was 328 mg/kg-day. For the same compound, the NOAEL ([9]; chronic, duration: 2 years, oral, diet, histopathology: nonneoplastic) was 0.88 mg/kg-day, the NOEL ([9]; chronic, histopathology: nonneoplastic) was 13.8 mg/kg-day and the NOAEL ([9]; developmental, development) was 10 mg/kg-day. For the same compound, the NOEL ([9]; reproduction developmental, body weight) was 1.3 mg/kg-day, the NOEL [10] was 12.5 mg/kg-day and the NOEC [11] was 26.5 mg/kg-day. It also gave an LC50 ([12]; diet) greater than 778 mg/kg-day and an LD50 [12] greater than 2150 mg/kg-day.
